Test system: HaCaT cells
Experiment: Concentrations of inflammatory mediators produced by HaCaT cells stimulated with TNFα and IFNγ in presence/absence of JAK inhibitors (ProCarta)
Type: cell-based, human
Protocol: After 48 hours, cell culture media was removed from 24 well plates and replaced with 250 uL of media containing serial diluted drug, then incubated for 15 minutes at 37° C./5% CO2. […] The final concentration of Recombinant Human Interferon gamma and Recombinant Human Tumor Necrosis Factor alpha was 25 ng/mL of each cytokine. Cytokine stimulation added to wells containing drug brought the final concentrations for each drug treatment to 25 nM, 50 nM, 100 nM, and 200 nM. Treated plates were mixed by gentle agitation for 30 seconds then incubated for 24 hours at 37° C./5% CO2. At the end of the 24 hour incubation media was immediately removed from each plate.
Media was incubated with antibody conjugated beads designed to bind to the epitopes of specific target proteins and identify the bound protein through the bead's distinctive spectral pattern. Biotinylated detection antibodies, designed to bind to different epitopes of the same target proteins, and Streptavidin-PE are added to assay plates to quantify the amount of the target proteins. Assay plates were read on the Luminex 200 and data were expressed as Net Median Fluorescence Intensity. […] The concentration of each protein was extrapolated from the antigen standard curve and concentrations were expressed as pg/mL (Table 15).

[1] = TNFα+IFNγ 25 ng/mL each, drug conc. 1st of 4 rows (cell not shown; prob. 25 nM)
[2] = TNFα+IFNγ 25 ng/mL each, drug conc. 2nd of 4 rows (cell not shown; prob. 50 nM)
[3] = TNFα+IFNγ 25 ng/mL each, drug conc. 3rd of 4 rows (cell not shown; prob. 100 nM)
[4] = TNFα+IFNγ 25 ng/mL each, drug conc. 4th of 4 rows (cell not shown; prob. 200 nM)
[5] = drug present, concentration not given

What does the source list for `Cc1n[nH]c(C)c1-c1cnn(C2(CC#N)CN(c3cc(F)c(C(=O)N[C@@H](C)C(F)(F)F)cc3F)C2)c1` [Cpd C, 4-[3-(Cyanomethyl)-3-(3′,5′-dimethyl-1H,1′H-4,4′-bipyrazol-1-yl)azetidin-1-yl]-2,5-difluoro-N-[(1S)-2,2,2-trifluoro-1-methylethyl]benzamide]?
IFN gamma concentration [1]: 27765.18 ± 4653.71 pg/mL; IL1RA concentration [1]: 6175.66 ± 277.7 pg/mL; IL1 alpha concentration [1]: 7.74 ± 0.36 pg/mL; IL1 beta concentration [1]: 8.88 ± 0.35 pg/mL; IL2 concentration [1]: 31.39 ± 1.44 pg/mL; IL4 concentration [1]: 8.31 ± 2.19 pg/mL; IL5 concentration [1]: 27.03 ± 1.35 pg/mL; IL6 concentration [1]: 774.87 ± 31.09 pg/mL; IL7 concentration [1]: 2.18 ± 0.15 pg/mL; IL8 concentration [1]: 2879.27 ± 117.07 pg/mL; IL9 concentration [1]: 3.37 ± 0.33 pg/mL; IL10 concentration [1]: 0.75 ± 0.05 pg/mL; IL12p70 concentration [1]: 1.97 ± 0.22 pg/mL; IL13 concentration [1]: 2.93 ± 0.41 pg/mL; IL15 concentration [1]: 3.97 ± 0.71 pg/mL; IL17A concentration [1]: 4.27 ± 0.42 pg/mL; IL18 concentration [1]: 163.63 ± 3.29 pg/mL; IL21 concentration [1]: 2.71 ± 0.18 pg/mL; IL22 concentration [1]: 7.15 ± 1.16 pg/mL; IL23 concentration [1]: 7.43 ± 0 pg/mL; IL27 concentration [1]: 8.88 ± 1.64 pg/mL; IL31 concentration [1]: 3.52 ± 0.53 pg/mL; IP-10/CXCL10 concentration [1]: 3999.9 ± 370.53 pg/mL; LIF concentration [1]: 67.72 ± 2.04 pg/mL; MCP1 concentration [1]: 15200 ± 0 pg/mL; MIP1 alpha concentration [1]: 101.71 ± 3.84 pg/mL; MIP1 beta concentration [1]: 318.92 ± 6.03 pg/mL; PDGF-BB concentration [1]: 4.93 ± 0.21 pg/mL; PIGF-1 concentration [1]: 58.04 ± 2.17 pg/mL; RANTES concentration [1]: 216.88 ± 13.45 pg/mL; SCF concentration [1]: 4.34 ± 0.19 pg/mL; SDF-1 alpha concentration [1]: 3503.89 ± 90.15 pg/mL; TNF alpha concentration [1]: 11212.78 ± 1168.53 pg/mL; TNF beta concentration [1]: 5.68 ± 1.4 pg/mL; VEGF-A concentration [1]: 1261.47 ± 37.95 pg/mL; VEGF-D concentration [1]: 8.6 ± 0.74 pg/mL; IFN gamma concentration [2]: 23531.94 ± 2644.35 pg/mL; IL1RA concentration [2]: 6065 ± 325.72 pg/mL; IL1 alpha concentration [2]: 7.01 ± 0.39 pg/mL; IL1 beta concentration [2]: 8.72 ± 0.47 pg/mL; IL2 concentration [2]: 29.87 ± 1.38 pg/mL; IL4 concentration [2]: 5.24 ± 0.99 pg/mL; IL5 concentration [2]: 26.49 ± 1.58 pg/mL; IL6 concentration [2]: 710.89 ± 36.7 pg/mL; IL7 concentration [2]: 2.02 ± 0.07 pg/mL; IL8 concentration [2]: 2869.74 ± 167.65 pg/mL; IL9 concentration [2]: 3.7 ± 0^ pg/mL; IL10 concentration [2]: 0.74 ± 0.06 pg/mL; IL12p70 concentration [2]: 1.72 ± 0.2 pg/mL; IL13 concentration [2]: 2.24 ± 0.28 pg/mL; IL15 concentration [2]: 2.29 ± 0.44 pg/mL; IL17A concentration [2]: 3.48 ± 0.39 pg/mL; IL18 concentration [2]: 156.41 ± 4.19 pg/mL; IL21 concentration [2]: 2.88 ± 0 pg/mL; IL22 concentration [2]: 8.03 ± 0.87 pg/mL; IL23 concentration [2]: 7.43 ± 0 pg/mL; IL27 concentration [2]: 5.98 ± 1.08 pg/mL; IL31 concentration [2]: 3.36 ± 0.27 pg/mL; IP-10/CXCL10 concentration [2]: 3665.2 ± 277.11 pg/mL; LIF concentration [2]: 67.64 ± 3.17 pg/mL; MCP1 concentration [2]: 33175.72 ± 17975.72 pg/mL; MIP1 alpha concentration [2]: 104.54 ± 6.56 pg/mL; MIP1 beta concentration [2]: 318.37 ± 9.88 pg/mL; PDGF-BB concentration [2]: 5.22 ± 0.25 pg/mL; PIGF-1 concentration [2]: 55.59 ± 2.74 pg/mL; RANTES concentration [2]: 201.93 ± 15.44 pg/mL; SCF concentration [2]: 4.25 ± 0.22 pg/mL; SDF-1 alpha concentration [2]: 3471.01 ± 141.19 pg/mL; TNF alpha concentration [2]: 10367.04 ± 1016.28 pg/mL; TNF beta concentration [2]: 5.54 ± 0.56 pg/mL; VEGF-A concentration [2]: 1268.91 ± 59.05 pg/mL; VEGF-D concentration [2]: 8.44 ± 0.66 pg/mL; IFN gamma concentration [3]: 23113.79 ± 2086.62 pg/mL; IL1RA concentration [3]: 6167.55 ± 367.54 pg/mL; IL1 alpha concentration [3]: 7.27 ± 0.47 pg/mL; IL1 beta concentration [3]: 8.55 ± 0.34 pg/mL; IL2 concentration [3]: 30.51 ± 1.23 pg/mL; IL4 concentration [3]: 6.26 ± 1.35 pg/mL; IL5 concentration [3]: 28.64 ± 1.4 pg/mL; IL6 concentration [3]: 690.4 ± 35.25 pg/mL; IL7 concentration [3]: 2.04 ± 0.11 pg/mL; IL8 concentration [3]: 3035.52 ± 206.85 pg/mL; IL9 concentration [3]: 4.16 ± 0.46 pg/mL; IL10 concentration [3]: 0.75 ± 0.07 pg/mL; IL12p70 concentration [3]: 1.75 ± 0.23 pg/mL; IL13 concentration [3]: 2.58 ± 0.36 pg/mL; IL15 concentration [3]: 2.42 ± 0.54 pg/mL; IL17A concentration [3]: 3.77 ± 0.42 pg/mL; IL18 concentration [3]: 162.12 ± 5.14 pg/mL; IL21 concentration [3]: 2.6 ± 0.28 pg/mL; IL22 concentration [3]: 7.31 ± 1.07 pg/mL; IL23 concentration [3]: 6.7 ± 0.73 pg/mL; IL27 concentration [3]: 5.7 ± 1.04 pg/mL; IL31 concentration [3]: 2.95 ± 0.38 pg/mL; IP-10/CXCL10 concentration [3]: 3860.41 ± 323.05 pg/mL; LIF concentration [3]: 73.12 ± 3.62 pg/mL; MCP1 concentration [3]: 26334.64 ± 11134.64 pg/mL; MIP1 alpha concentration [3]: 96.4 ± 4.18 pg/mL; MIP1 beta concentration [3]: 324.42 ± 8.52 pg/mL; PDGF-BB concentration [3]: 5.57 ± 0.23 pg/mL; PIGF-1 concentration [3]: 58.69 ± 3.37 pg/mL; RANTES concentration [3]: 207.79 ± 17.38 pg/mL; SCF concentration [3]: 4.59 ± 0.25 pg/mL; SDF-1 alpha concentration [3]: 3521.98 ± 154.06 pg/mL; TNF alpha concentration [3]: 10632.61 ± 795.65 pg/mL; TNF beta concentration [3]: 4.6 ± 0.46 pg/mL; VEGF-A concentration [3]: 1335.99 ± 63.65 pg/mL; VEGF-D concentration [3]: 9.25 ± 0.7 pg/mL; IFN gamma concentration [4]: 25179.01 ± 3591.71 pg/mL; IL1RA concentration [4]: 5756.59 ± 328.24 pg/mL; IL1 alpha concentration [4]: 6.45 ± 0.38 pg/mL; IL1 beta concentration [4]: 8.71 ± 0.5 pg/mL; IL2 concentration [4]: 30.68 ± 1.62 pg/mL; IL4 concentration [4]: 7.07 ± 0.88 pg/mL; IL5 concentration [4]: 27.1 ± 1.76 pg/mL; IL7 concentration [4]: 1.91 ± 0.11 pg/mL; IL8 concentration [4]: 2874.26 ± 169.59 pg/mL; IL9 concentration [4]: 3.66 ± 0.04 pg/mL; IL10 concentration [4]: 0.84 ± 0.08 pg/mL; IL12p70 concentration [4]: 1.79 ± 0.23 pg/mL; IL13 concentration [4]: 2.12 ± 0.3 pg/mL; IL15 concentration [4]: 2.32 ± 0.44 pg/mL; IL17A concentration [4]: 4 ± 0.34 pg/mL; IL18 concentration [4]: 157.36 ± 4.56 pg/mL; IL21 concentration [4]: 2.45 ± 0.29 pg/mL; IL22 concentration [4]: 8.24 ± 0.53 pg/mL; IL23 concentration [4]: 6.95 ± 0.48 pg/mL; IL27 concentration [4]: 6.59 ± 0.99 pg/mL; IL31 concentration [4]: 3.34 ± 0.69 pg/mL; IP-10/CXCL10 concentration [4]: 3835.78 ± 304.58 pg/mL; LIF concentration [4]: 70.66 ± 3.22 pg/mL; MCP1 concentration [4]: 19811.45 ± 4611.45 pg/mL; MIP1 alpha concentration [4]: 98.72 ± 3.87 pg/mL; MIP1 beta concentration [4]: 318.74 ± 8.72 pg/mL; PDGF-BB concentration [4]: 5.52 ± 0.27 pg/mL; PIGF-1 concentration [4]: 55.71 ± 3.28 pg/mL; RANTES concentration [4]: 189.62 ± 13.78 pg/mL; SCF concentration [4]: 4.23 ± 0.15 pg/mL; SDF-1 alpha concentration [4]: 3436.48 ± 134.91 pg/mL; TNF alpha concentration [4]: 10619.05 ± 1276.72 pg/mL; TNF beta concentration [4]: 3.78 ± 0.57 pg/mL; VEGF-A concentration [4]: 1262.36 ± 57.42 pg/mL; VEGF-D concentration [4]: 8.82 ± 0.7 pg/mL; IL1RA concentration [5]: 488.84 ± 49.85 pg/mL; IL1 alpha concentration [5]: 0.3 ± 0.05 pg/mL; IL1 beta concentration [5]: 0.93 ± 0.17 pg/mL; IL2 concentration [5]: 2.65 ± 0.28 pg/mL; IL4 concentration [5]: 4.89 ± 1.18 pg/mL; IL5 concentration [5]: 3.04 ± 0.41 pg/mL; IL6 concentration [5]: 28.49 ± 2.89 pg/mL; IL7 concentration [5]: 3.35 ± 0.18 pg/mL; IL8 concentration [5]: 269.53 ± 10.35 pg/mL; IL9 concentration [5]: 3.65 ± 0.2 pg/mL; IL10 concentration [5]: 0.4 ± 0.11 pg/mL; IL12p70 concentration [5]: 1.52 ± 0.29 pg/mL; IL13 concentration [5]: 1.08 ± 0.13 pg/mL; IL15 concentration [5]: 1.98 ± 0.49 pg/mL; IL17A concentration [5]: 1.39 ± 0.22 pg/mL; IL18 concentration [5]: 5.89 ± 0.58 pg/mL; IL21 concentration [5]: 2.33 ± 0.29 pg/mL; IL22 concentration [5]: 7.16 ± 1.16 pg/mL; IL23 concentration [5]: 6.54 ± 1 pg/mL; IL27 concentration [5]: 9.17 ± 2.36 pg/mL; IL31 concentration [5]: 3.28 ± 0.31 pg/mL; IP-10/CXCL10 concentration [5]: 19.83 ± 0.4 pg/mL; LIF concentration [5]: 24.24 ± 1.14 pg/mL; MCP1 concentration [5]: 1158.23 ± 47.13 pg/mL; MIP1 alpha concentration [5]: 2.9 ± 0.21 pg/mL; MIP1 beta concentration [5]: 117.97 ± 3.75 pg/mL; PDGF-BB concentration [5]: 2.19 ± 0.17 pg/mL; PIGF-1 concentration [5]: 21.19 ± 1.05 pg/mL; RANTES concentration [5]: 8.61 ± 0.52 pg/mL; SCF concentration [5]: 2 ± 0.1 pg/mL; SDF-1 alpha concentration [5]: 1028.82 ± 43.21 pg/mL; TNF alpha concentration [5]: 2.82 ± 0.72 pg/mL; TNF beta concentration [5]: 4.5 ± 0.5 pg/mL; VEGF-A concentration [5]: 609.51 ± 15.83 pg/mL; VEGF-D concentration [5]: 3.63 ± 0.6 pg/mL

— patent publication US12498382B2, “Biomarkers for vitiligo” (INCYTE CORPORATION, priority 2019, dated 2025)
